In patent publication US20240092835A1, “NOVEL PEPTIDES CAPABLE OF ALTERING NK CELL ACTIVITY” (Massachusetts Institute of Technology, priority 2022, published 2024):
“Also recorded” adds a separate entry of the source. Where no end group is shown, it is not given here.

Legend:
NKG2A+/NKG2C− NK cells = assay: NK cell activation markers in NKG2A+/NKG2C- NK cells incubated with peptide and K562 expressing HLA-E (inhibition); type: cell-based, human; settings: for effect on NKG2A+/NKG2C− NK cell inhibition (in words): K562 expressing HLA-E, CD107a, IFNG, TNF, CCL3; for percentage of CCL3+ NK cells / percentage of CD107a+ NK cells / percentage of IFNG+ NK cells / percentage of TNF+ NK cells: NKG2A+/NKG2C- NK cells, K562/HLA-E
In short: (§1)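 Percent-positive cells for NK activation surface markers were measured after NK cells met peptide-treated K562 cells expressing HLA-E. A decrease in that fraction was scored as inhibition and an increase as activation; NKG2A−/NKG2C− cells served as controls.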

NKG2A−/NKG2C+ NK cells = assay: NK cell activation markers in NKG2A-/NKG2C+ NK cells incubated with peptide and K562 expressing HLA-E (activation); type: cell-based, human; settings: for effect on NKG2A−/NKG2C+ NK cell activation (in words): K562 expressing HLA-E, CD107a, IFNG, TNF, CCL3; for percentage of CCL3+ NK cells / percentage of CD107+ NK cells / percentage of IFNG+ NK cells / percentage of TNF+ NK cells: NKG2A-/NKG2C+ NK cells, K562/HLA-E
In short: as §1

QMPSRSLLF [human1, QMPSRSLLF]
effect on NKG2A+/NKG2C− NK cell inhibition (in words) (NKG2A+/NKG2C− NK cells; listed as SEQ ID NO. 7): mild inhibitory effects | effect on NKG2A+/NKG2C− NK cell inhibition (in words) (NKG2A+/NKG2C− NK cells; listed as h1): mild inhibitory effects; also recorded: strong inhibitory | percentage of CCL3+ NK cells (NKG2A+/NKG2C− NK cells; Trial 1): 31.8% | percentage of CD107a+ NK cells (NKG2A+/NKG2C− NK cells; Trial 1): 15.3% | percentage of IFNG+ NK cells (NKG2A+/NKG2C− NK cells; Trial 1): 4.26% | percentage of TNF+ NK cells (NKG2A+/NKG2C− NK cells; Trial 1): 1.66% | percentage of CCL3+ NK cells (NKG2A+/NKG2C− NK cells; Trial 2): 47% | percentage of CD107a+ NK cells (NKG2A+/NKG2C− NK cells; Trial 2): 25.7% | percentage of IFNG+ NK cells (NKG2A+/NKG2C− NK cells; Trial 2): 9.68% | percentage of TNF+ NK cells (NKG2A+/NKG2C− NK cells; Trial 2): 3.94% | percentage of CCL3+ NK cells (NKG2A+/NKG2C− NK cells; Trial 3): 28.8% | percentage of CD107a+ NK cells (NKG2A+/NKG2C− NK cells; Trial 3): 28.5% | percentage of IFNG+ NK cells (NKG2A+/NKG2C− NK cells; Trial 3): 15.5% | percentage of TNF+ NK cells (NKG2A+/NKG2C− NK cells; Trial 3): 9.23% | percentage of CCL3+ NK cells (NKG2A+/NKG2C− NK cells; Trial 4): 14.2% | percentage of CD107a+ NK cells (NKG2A+/NKG2C− NK cells; Trial 4): 14.6% | percentage of IFNG+ NK cells (NKG2A+/NKG2C− NK cells; Trial 4): 3.06% | percentage of TNF+ NK cells (NKG2A+/NKG2C− NK cells; Trial 4): 2.61% | percentage of CCL3+ NK cells (NKG2A+/NKG2C− NK cells; Trial 5): 25.5% | percentage of CD107a+ NK cells (NKG2A+/NKG2C− NK cells; Trial 5): 9.4% | percentage of IFNG+ NK cells (NKG2A+/NKG2C− NK cells; Trial 5): 2.48% | percentage of TNF+ NK cells (NKG2A+/NKG2C− NK cells; Trial 5): 1.56% | percentage of CCL3+ NK cells (NKG2A+/NKG2C− NK cells; Trial 6): 16.6% | percentage of CD107a+ NK cells (NKG2A+/NKG2C− NK cells; Trial 6): 13.3% | percentage of IFNG+ NK cells (NKG2A+/NKG2C− NK cells; Trial 6): 2.26% | percentage of TNF+ NK cells (NKG2A+/NKG2C− NK cells; Trial 6): 1.77% | effect on NKG2A−/NKG2C+ NK cell activation (in words) (NKG2A−/NKG2C+ NK cells; listed as SEQ ID NO. 7): strong activating effects | effect on NKG2A−/NKG2C+ NK cell activation (in words) (NKG2A−/NKG2C+ NK cells; listed as h1): strong inhibitory and activating effects | percentage of CCL3+ NK cells (NKG2A−/NKG2C+ NK cells; Trial 1): 78.3% | percentage of CD107+ NK cells (NKG2A−/NKG2C+ NK cells; Trial 1): 74.8% | percentage of IFNG+ NK cells (NKG2A−/NKG2C+ NK cells; Trial 1): 62.6% | percentage of TNF+ NK cells (NKG2A−/NKG2C+ NK cells; Trial 1): 51.1% | percentage of CCL3+ NK cells (NKG2A−/NKG2C+ NK cells; Trial 2): 91.5% | percentage of CD107+ NK cells (NKG2A−/NKG2C+ NK cells; Trial 2): 87.4% | percentage of IFNG+ NK cells (NKG2A−/NKG2C+ NK cells; Trial 2): 84.1% | percentage of TNF+ NK cells (NKG2A−/NKG2C+ NK cells; Trial 2): 75.2% | percentage of CCL3+ NK cells (NKG2A−/NKG2C+ NK cells; Trial 3): 86.6% | percentage of CD107+ NK cells (NKG2A−/NKG2C+ NK cells; Trial 3): 87% | percentage of IFNG+ NK cells (NKG2A−/NKG2C+ NK cells; Trial 3): 80.5% | percentage of TNF+ NK cells (NKG2A−/NKG2C+ NK cells; Trial 3): 72.9% | percentage of CCL3+ NK cells (NKG2A−/NKG2C+ NK cells; Trial 4): 68.1% | percentage of CD107+ NK cells (NKG2A−/NKG2C+ NK cells; Trial 4): 68.2% | percentage of IFNG+ NK cells (NKG2A−/NKG2C+ NK cells; Trial 4): 58.1% | percentage of TNF+ NK cells (NKG2A−/NKG2C+ NK cells; Trial 4): 51.6% | percentage of CCL3+ NK cells (NKG2A−/NKG2C+ NK cells; Trial 5): 79.1% | percentage of CD107+ NK cells (NKG2A−/NKG2C+ NK cells; Trial 5): 75.8% | percentage of IFNG+ NK cells (NKG2A−/NKG2C+ NK cells; Trial 5): 66.9% | percentage of TNF+ NK cells (NKG2A−/NKG2C+ NK cells; Trial 5): 64% | percentage of CCL3+ NK cells (NKG2A−/NKG2C+ NK cells; Trial 6): 61.1% | percentage of CD107+ NK cells (NKG2A−/NKG2C+ NK cells; Trial 6): 57.6%
